# Laboratory results reported in patent publication US20250009815A1, “COMPOSITION FOR COMPETITIVE INHIBITION OF PATHOGENS AND RESTORATION OF MICROBIAL ECOLOGICAL BALANCE” (priority 2019, published 2025).
# Where two headings read alike, the source gives them in different places.
# Columns and labels:
# Assay type in all cases: cell-based
# [1] = system: VP01 (suspected fungal vaginal pathogen); test: Zone of inhibition against isolated vaginal pathogen VP01
# From the text: (§1) Antimicrobial activities against isolated vaginal pathogens (i.e. VP01, VP02, VP06, VP03, VP04 and VP05) were individually screened and analyzed to conclude and find effective probiotic compositions.
# (§2) Different combination of selected probiotics strains with variation in potency were formed and underwent potential antimicrobial effect against isolated vaginal bacterial and fungal pathogens. The extents of zone of inhibition in antimicrobial activity were considered for selection of formulation. The probiotic compositions of the present invention comprise (a) Bacillus coagulans (B.C.); (b) Bacillus subtilis (B.S.); (c) citric acid (CA); (d) gallic acid (GA); (e) beta-cyclodextrin (adhesive); (f) allentoin and (g) a pH regulator (h) lanolin (i) polyethylene glycol (j) a cooling agent etc., and (k) a bioadhesive.
# (§3) The zones of inhibition were also examined for each individual components at the same concentration levels as present in the respective combined formulations.
# [2] = system: VP02 (suspected fungal vaginal pathogen); test: Zone of inhibition against isolated vaginal pathogen VP02
# From the text: as §1, §2, §3
# [3] = system: VP06, identified as Candida albicans
# From the text: as §1, §2, §3
# Vaginal swabs obtained from infected patients were grown on Potato Dextrose Agar (PDA) media, and thereafter single colonies were re-streaked on Potato Dextrose Agar plates to obtain fungal isolates, which were designated as VP06, VP02 and VP01. Potato Dextrose Agar is a common medium usually practiced to isolate and culture various fungi only, specifically applicable for yeast or fungi.
# [4] = system: VP03, identified as Gardnerella vaginalis; test: Zone of inhibition against isolated vaginal pathogen VP03
# From the text: as §1, §2, §3
# [5] = system: VP04 (suspected bacterial vaginal pathogen); test: Zone of inhibition against isolated vaginal pathogen VP04
# From the text: as §1, §2, §3
# [6] = system: VP05 (suspected bacterial vaginal pathogen); test: Zone of inhibition against isolated vaginal pathogen VP05
# From the text: as §1, §2, §3
# [7] = Table 1 initial studies, n-i = no zone of inhibition
# [8] = Table 4, amounts as in formulation A: B.c 700, B.s 25 million cfu, CA 10, GA 100 mg, n-i = no zone
# [9] = Table 5, amounts as in formulation B: B.c 550, B.s 125 million cfu, CA 20, GA 60 mg, n-i = no zone
# [10] = Table 6, amounts as in formulation C: B.c 350, B.s 350 million cfu, CA 20, GA 40 mg, n-i = no zone
# [11] = Table 7, amounts as in formulation D: B.c 125, B.s 550 million cfu, CA 60, GA 20 mg, n-i = no zone
# [12] = Table 8, amounts as in formulation E: B.c 25, B.s 700 million cfu, CA 100, GA 10 mg, n-i = no zone
SMILES,"ZONE OF INHIBITION VP01 [1, 7] [mm]","ZONE OF INHIBITION VP01 [1, 8]","ZONE OF INHIBITION VP01 [1, 9]","ZONE OF INHIBITION VP01 [1, 10] [mm]","ZONE OF INHIBITION VP01 [1, 11] [mm]","ZONE OF INHIBITION VP01 [1, 12] [mm]","ZONE OF INHIBITION VP02 [2, 7] [mm]","ZONE OF INHIBITION VP02 [2, 8]","ZONE OF INHIBITION VP02 [2, 9]","ZONE OF INHIBITION VP02 [2, 10]","ZONE OF INHIBITION VP02 [2, 11]","ZONE OF INHIBITION VP06 [3, 7]","ZONE OF INHIBITION VP06 [3, 8]","ZONE OF INHIBITION VP06 [3, 9]","ZONE OF INHIBITION VP06 [3, 10]","ZONE OF INHIBITION VP06 [3, 11]","ZONE OF INHIBITION VP06 [3, 12]","ZONE OF INHIBITION VP03 [4, 7]","ZONE OF INHIBITION VP03 [4, 9] [mm]","ZONE OF INHIBITION VP03 [4, 10] [mm]",further results
"O=C(O)CC(O)(CC(=O)O)C(=O)O [Citric Acid (CA), citric acid]",41,n-i,n-i,23,22,25,30,n-i,n-i,n-i,n-i,n-i,n-i,n-i,n-i,n-i,n-i,10 mm,7,8,"ZONE OF INHIBITION VP02 ([2]; Table 8, amounts as in formulation E: B.c 25, B.s 700 million cfu, CA 100, GA 10 mg, n-i = no zone, listed as CA): n-i; ZONE OF INHIBITION VP02 ([2]; Table 8, amounts as in formulation E: B.c 25, B.s 700 million cfu, CA 100, GA 10 mg, n-i = no zone, listed as Citric acid): not active; ZONE OF INHIBITION VP03 ([4]; Table 4, amounts as in formulation A: B.c 700, B.s 25 million cfu, CA 10, GA 100 mg, n-i = no zone, listed as CA): n-i; ZONE OF INHIBITION VP03 ([4]; Table 4, amounts as in formulation A: B.c 700, B.s 25 million cfu, CA 10, GA 100 mg, n-i = no zone, listed as Citric Acid): unable to cause any inhibitory effect; ZONE OF INHIBITION VP03 ([4]; Table 7, amounts as in formulation D: B.c 125, B.s 550 million cfu, CA 60, GA 20 mg, n-i = no zone, listed as CA): n-i; ZONE OF INHIBITION VP03 ([4]; Table 7, amounts as in formulation D: B.c 125, B.s 550 million cfu, CA 60, GA 20 mg, n-i = no zone, listed as Citric acid): not active; ZONE OF INHIBITION VP03 [4, 12]: 9 mm; ZONE OF INHIBITION VP04 [5, 7]: 11 mm; ZONE OF INHIBITION VP04 [5, 8]: n-i; ZONE OF INHIBITION VP04 [5, 9]: n-i; ZONE OF INHIBITION VP04 [5, 10]: 10 mm; ZONE OF INHIBITION VP04 [5, 11]: 10 mm; ZONE OF INHIBITION VP04 [5, 12]: 11 mm; ZONE OF INHIBITION VP05 [6, 7]: 19 mm; ZONE OF INHIBITION VP05 [6, 8]: n-i; ZONE OF INHIBITION VP05 [6, 9]: n-i; ZONE OF INHIBITION VP05 [6, 10]: 8 mm; ZONE OF INHIBITION VP05 [6, 11]: 8 mm; ZONE OF INHIBITION VP05 [6, 12]: 10 mm"
"O=C(O)c1cc(O)c(O)c(O)c1 [Gallic Acid (GA), gallic acid]",35,19 mm,17 mm,16,16,13,35,16 mm,15 mm,15 mm,18 mm,9 mm,n-i,n-i,n-i,N-i,n-i,n-i,5,7,"ZONE OF INHIBITION VP02 ([2]; Table 8, amounts as in formulation E: B.c 25, B.s 700 million cfu, CA 100, GA 10 mg, n-i = no zone, listed as GA): n-i; ZONE OF INHIBITION VP02 ([2]; Table 8, amounts as in formulation E: B.c 25, B.s 700 million cfu, CA 100, GA 10 mg, n-i = no zone, listed as Gallic Acid): not active; ZONE OF INHIBITION VP03 [4, 8]: 8 mm; ZONE OF INHIBITION VP03 ([4]; Table 7, amounts as in formulation D: B.c 125, B.s 550 million cfu, CA 60, GA 20 mg, n-i = no zone, listed as GA): n-i; ZONE OF INHIBITION VP03 ([4]; Table 7, amounts as in formulation D: B.c 125, B.s 550 million cfu, CA 60, GA 20 mg, n-i = no zone, listed as Gallic Acid): not active; ZONE OF INHIBITION VP03 [4, 12]: n-i; ZONE OF INHIBITION VP04 [5, 7]: 9 mm; ZONE OF INHIBITION VP04 [5, 8]: 10 mm; ZONE OF INHIBITION VP04 [5, 9]: 10 mm; ZONE OF INHIBITION VP04 [5, 10]: 9 mm; ZONE OF INHIBITION VP04 [5, 11]: 9 mm; ZONE OF INHIBITION VP04 [5, 12]: 7 mm; ZONE OF INHIBITION VP05 [6, 7]: 11 mm; ZONE OF INHIBITION VP05 [6, 8]: 7 mm; ZONE OF INHIBITION VP05 [6, 9]: 7 mm; ZONE OF INHIBITION VP05 [6, 10]: 6 mm; ZONE OF INHIBITION VP05 [6, 11]: 6 mm; ZONE OF INHIBITION VP05 [6, 12]: 6 mm"
